Reference: patent US9255295B2, “Method for evaluating the sensitizing potential of a test compound” (IMMUNOSEARCH, priority 2010, dated 2016)

Tested on: genes specific for sensitization (BRAK, CTSS, DAPK2, FABP4, HSP27, IL18, HSP90, IL1R2, TPSAB1, CXCR1, DEFB1, DHFR, EHF, IVL, KRT4, MELANA, NGAL, PDZK1IP1, PI3 …)
Experiment: Expression of the other (non-ARE) sensitization-specific genes in EPISKIN reconstructed skin (quantitative RT-PCR)
Assay type: cell-based, human
Conditions: for BRAK expression / DHFR expression / HSP90 expression / IL18 expression / KRT4 expression / MELANA expression / PDZK1iP1 expression / SERPINB3 expression: compared to the control

CC=Cc1ccc(O)c(OC)c1 [Isoeugenol]
BRAK NUMBER OF GENES grade (0.1%): 0 (if this expression is lower, the grade is 0) | CTSS expression compared to control (0.1%): 0.9 | CTSS grade (NUMBER OF GENES) (0.1%): 0 (if this expression is lower, the grade is 0) | CXCR1 expression compared to control (0.1%): 0.7 | CXCR1 grade (NUMBER OF GENES) (0.1%): 0 (if this expression is lower, the grade is 0) | DAPK2 expression compared to control (0.1%): 1.1 | DAPK2 grade (NUMBER OF GENES) (0.1%): 0 (if this expression is lower, the grade is 0) | DEFB1 expression compared to control (0.1%): 1.0 | DEFB1 grade (NUMBER OF GENES) (0.1%): 0 (if this expression is lower, the grade is 0) | DHFR NUMBER OF GENES grade (0.1%): 0 (if this expression is lower, the grade is 0) | EHF expression compared to control (0.1%): 1.5 | EHF grade (NUMBER OF GENES) (0.1%): 1 (If the expression is greater than 1.3 compared to the control, a grade of 11s given) | FABP4 expression compared to control (0.1%): 0.8 | FABP4 grade (NUMBER OF GENES) (0.1%): 0 (if this expression is lower, the grade is 0) | HSP27 expression compared to control (0.1%): 1.0 | HSP27 grade (NUMBER OF GENES) (0.1%): 0 (if this expression is lower, the grade is 0) | HSP90 NUMBER OF GENES grade (0.1%): 0 (if this expression is lower, the grade is 0) | IL18 NUMBER OF GENES grade (0.1%): 0 (if this expression is lower, the grade is 0) | IVL expression compared to control (0.1%): 1.3 | IVL grade (NUMBER OF GENES) (0.1%): 1 (If the expression is greater than 1.3 compared to the control, a grade of 11s given) | KRT4 NUMBER OF GENES grade (0.1%): 0 (if this expression is lower, the grade is 0) | MELANA NUMBER OF GENES grade (0.1%): 0 (if this expression is lower, the grade is 0) | NGAL expression compared to control (0.1%): 1.1 | NGAL grade (NUMBER OF GENES) (0.1%): 0 (if this expression is lower, the grade is 0) | P13 expression compared to control (0.1%): 1.1 | P13 grade (NUMBER OF GENES) (0.1%): 0 (if this expression is lower, the grade is 0) | PDZK1iP1 NUMBER OF GENES grade (0.1%): 0 (if this expression is lower, the grade is 0) | SENS >1.3 (number of genes) (0.1%): 2 | SERPINB3 NUMBER OF GENES grade (0.1%): 0 (if this expression is lower, the grade is 0) | TOTAL SENS (number of genes) (0.1%): 2 | BRAK expression (0.1%): 0.6 | DHFR expression (0.1%): 0.8 | HSP90 expression (0.1%): 0.9 | IL18 expression (0.1%): 0.6 | KRT4 expression (0.1%): 1.2 | MELANA expression (0.1%): 0.9 | PDZK1iP1 expression (0.1%): 1.0 | SERPINB3 expression (0.1%): 1.2 | BRAK NUMBER OF GENES grade (1%): 0 (if this expression is lower, the grade is 0) | CTSS expression compared to control (1%): 0.8 | CTSS grade (NUMBER OF GENES) (1%): 0 (if this expression is lower, the grade is 0) | CXCR1 expression compared to control (1%): 1.1 | CXCR1 grade (NUMBER OF GENES) (1%): 0 (if this expression is lower, the grade is 0) | DAPK2 expression compared to control (1%): 0.9 | DAPK2 grade (NUMBER OF GENES) (1%): 0 (if this expression is lower, the grade is 0) | DEFB1 expression compared to control (1%): 1.1 | DEFB1 grade (NUMBER OF GENES) (1%): 0 (if this expression is lower, the grade is 0) | DHFR NUMBER OF GENES grade (1%): 0 (if this expression is lower, the grade is 0) | EHF expression compared to control (1%): 1.2 | EHF grade (NUMBER OF GENES) (1%): 0 (if this expression is lower, the grade is 0) | FABP4 expression compared to control (1%): 0.9 | FABP4 grade (NUMBER OF GENES) (1%): 0 (if this expression is lower, the grade is 0) | HSP27 expression compared to control (1%): 0.8 | HSP27 grade (NUMBER OF GENES) (1%): 0 (if this expression is lower, the grade is 0) | HSP90 NUMBER OF GENES grade (1%): 1 (If the expression is greater than 1.3 compared to the control, a grade of 11s given) | IL18 NUMBER OF GENES grade (1%): 0 (if this expression is lower, the grade is 0) | IVL expression compared to control (1%): 1.4 | IVL grade (NUMBER OF GENES) (1%): 1 (If the expression is greater than 1.3 compared to the control, a grade of 11s given) | KRT4 NUMBER OF GENES grade (1%): 0 (if this expression is lower, the grade is 0) | MELANA NUMBER OF GENES grade (1%): 1 (If the expression is greater than 1.3 compared to the control, a grade of 11s given) | NGAL expression compared to control (1%): 1.1 | NGAL grade (NUMBER OF GENES) (1%): 0 (if this expression is lower, the grade is 0) | P13 expression compared to control (1%): 0.9 | P13 grade (NUMBER OF GENES) (1%): 0 (if this expression is lower, the grade is 0) | PDZK1iP1 NUMBER OF GENES grade (1%): 0 (if this expression is lower, the grade is 0) | SENS >1.3 (number of genes) (1%): 5 | SERPINB3 NUMBER OF GENES grade (1%): 0 (if this expression is lower, the grade is 0) | TOTAL SENS (number of genes) (1%): 5 | BRAK expression (1%): 0.9 | DHFR expression (1%): 0.9 | HSP90 expression (1%): 1.3 | IL18 expression (1%): 1.1 | KRT4 expression (1%): 0.8 | MELANA expression (1%): 1.4 | PDZK1iP1 expression (1%): 1.1 | SERPINB3 expression (1%): 1.2 | BRAK NUMBER OF GENES grade (10%): 0 (if this expression is lower, the grade is 0) | CTSS expression compared to control (10%): 1.5 | CTSS grade (NUMBER OF GENES) (10%): 1 (If the expression is greater than 1.3 compared to the control, a grade of 11s given) | CXCR1 expression compared to control (10%): 1.6 | CXCR1 grade (NUMBER OF GENES) (10%): 1 (If the expression is greater than 1.3 compared to the control, a grade of 11s given) | DAPK2 expression compared to control (10%): 0.9 | DAPK2 grade (NUMBER OF GENES) (10%): 0 (if this expression is lower, the grade is 0) | DEFB1 expression compared to control (10%): 1.5 | DEFB1 grade (NUMBER OF GENES) (10%): 1 (If the expression is greater than 1.3 compared to the control, a grade of 11s given) | DHFR NUMBER OF GENES grade (10%): 0 (if this expression is lower, the grade is 0) | EHF expression compared to control (10%): 1.4 | EHF grade (NUMBER OF GENES) (10%): 1 (If the expression is greater than 1.3 compared to the control, a grade of 11s given) | FABP4 expression compared to control (10%): 1.2 | FABP4 grade (NUMBER OF GENES) (10%): 0 (if this expression is lower, the grade is 0) | HSP27 expression compared to control (10%): 0.9 | HSP27 grade (NUMBER OF GENES) (10%): 0 (if this expression is lower, the grade is 0) | HSP90 NUMBER OF GENES grade (10%): 1 (If the expression is greater than 1.3 compared to the control, a grade of 11s given) | IL18 NUMBER OF GENES grade (10%): 0 (if this expression is lower, the grade is 0) | IVL expression compared to control (10%): 1.9 | IVL grade (NUMBER OF GENES) (10%): 1 (If the expression is greater than 1.3 compared to the control, a grade of 11s given) | KRT4 NUMBER OF GENES grade (10%): 0 (if this expression is lower, the grade is 0) | MELANA NUMBER OF GENES grade (10%): 0 (if this expression is lower, the grade is 0) | NGAL expression compared to control (10%): 2.1 | NGAL grade (NUMBER OF GENES) (10%): 1 (If the expression is greater than 1.3 compared to the control, a grade of 11s given) | P13 expression compared to control (10%): 1.4 | P13 grade (NUMBER OF GENES) (10%): 1 (If the expression is greater than 1.3 compared to the control, a grade of 11s given) | PDZK1iP1 NUMBER OF GENES grade (10%): 0 (if this expression is lower, the grade is 0) | SENS >1.3 (number of genes) (10%): 10 | SERPINB3 NUMBER OF GENES grade (10%): 0 (if this expression is lower, the grade is 0) | TOTAL SENS (number of genes) (10%): 10 | BRAK expression (10%): 0.8 | DHFR expression (10%): 0.9 | HSP90 expression (10%): 1.3 | IL18 expression (10%): 0.7 | KRT4 expression (10%): 1.0 | MELANA expression (10%): 0.6 | PDZK1iP1 expression (10%): 1.0 | SERPINB3 expression (10%): 1.1 | BRAK NUMBER OF GENES grade (50%): 0 (if this expression is lower, the grade is 0) | CTSS expression compared to control (50%): 1.4 | CTSS grade (NUMBER OF GENES) (50%): 1 (If the expression is greater than 1.3 compared to the control, a grade of 11s given) | CXCR1 expression compared to control (50%): 2.6 | CXCR1 grade (NUMBER OF GENES) (50%): 1 (If the expression is greater than 1.3 compared to the control, a grade of 11s given) | DAPK2 expression compared to control (50%): 1.4 | DAPK2 grade (NUMBER OF GENES) (50%): 1 (If the expression is greater than 1.3 compared to the control, a grade of 11s given) | DEFB1 expression compared to control (50%): 2.1 | DEFB1 grade (NUMBER OF GENES) (50%): 1 (If the expression is greater than 1.3 compared to the control, a grade of 11s given) | DHFR NUMBER OF GENES grade (50%): 0 (if this expression is lower, the grade is 0) | EHF expression compared to control (50%): 2.0 | EHF grade (NUMBER OF GENES) (50%): 1 (If the expression is greater than 1.3 compared to the control, a grade of 11s given) | FABP4 expression compared to control (50%): 1.8 | FABP4 grade (NUMBER OF GENES) (50%): 1 (If the expression is greater than 1.3 compared to the control, a grade of 11s given) | HSP27 expression compared to control (50%): 1.2 | HSP27 grade (NUMBER OF GENES) (50%): 0 (if this expression is lower, the grade is 0) | HSP90 NUMBER OF GENES grade (50%): 1 (If the expression is greater than 1.3 compared to the control, a grade of 11s given) | IL18 NUMBER OF GENES grade (50%): 0 (if this expression is lower, the grade is 0) | IVL expression compared to control (50%): 2.8 | IVL grade (NUMBER OF GENES) (50%): 1 (If the expression is greater than 1.3 compared to the control, a grade of 11s given) | KRT4 NUMBER OF GENES grade (50%): 0 (if this expression is lower, the grade is 0) | MELANA NUMBER OF GENES grade (50%): 0 (if this expression is lower, the grade is 0) | NGAL expression compared to control (50%): 2.7 | NGAL grade (NUMBER OF GENES) (50%): 1 (If the expression is greater than 1.3 compared to the control, a grade of 11s given) | P13 expression compared to control (50%): 1.7 | P13 grade (NUMBER OF GENES) (50%): 1 (If the expression is greater than 1.3 compared to the control, a grade of 11s given) | PDZK1iP1 NUMBER OF GENES grade (50%): 0 (if this expression is lower, the grade is 0) | SENS >1.3 (number of genes) (50%): 13 | SERPINB3 NUMBER OF GENES grade (50%): 1 (If the expression is greater than 1.3 compared to the control, a grade of 11s given) | TOTAL SENS (number of genes) (50%): 13 | BRAK expression (50%): 0.6 | DHFR expression (50%): 0.9 | HSP90 expression (50%): 1.7 | IL18 expression (50%): 0.8 | KRT4 expression (50%): 1.2 | MELANA expression (50%): 0.4 | PDZK1iP1 expression (50%): 1.1 | SERPINB3 expression (50%): 1.5
